Our source for the EC50 and Kd values is ChEMBL document CHEMBL5214885, “PROTACs to address the challenges facing small molecule inhibitors” (Eur J Med Chem, 2021).

Usually EC50 stands for the concentration that produces a half-maximal response. As usually defined, the Kd is the concentration at which binding is half-saturated.

SMILES strings stand for the structures.

The target of experiment [1] is Protein cereblon/Bcl-2-like protein 1 (Homo sapiens, UniProt Q07817+Q96SW2). The experiment in a line: PROTAC activity at CRBN/BCL-XL in human MOLT-4 cells assessed as induction of BCL-XL degradation incubated for 16 hrs by Western blot analysis. The experiment is classed as cell-based. For orientation: In western blotting, separated proteins are transferred to a membrane and probed.

In experiment [2] the target is Microtubule-associated protein tau (Homo sapiens, UniProt P10636). The experiment in a line: Binding affinity to N-terminal His-tagged recombinant human Tau40 expressed in Escherichia coli Rosetta (DE3) assessed as dissociation constant incubated for 0.5 hrs by fluorescence polarization assay. Background: In fluorescence polarisation assays a small probe gives low polarisation when free and higher when bound to something large.
Chain of Microtubule-associated protein tau (P10636 whole entry): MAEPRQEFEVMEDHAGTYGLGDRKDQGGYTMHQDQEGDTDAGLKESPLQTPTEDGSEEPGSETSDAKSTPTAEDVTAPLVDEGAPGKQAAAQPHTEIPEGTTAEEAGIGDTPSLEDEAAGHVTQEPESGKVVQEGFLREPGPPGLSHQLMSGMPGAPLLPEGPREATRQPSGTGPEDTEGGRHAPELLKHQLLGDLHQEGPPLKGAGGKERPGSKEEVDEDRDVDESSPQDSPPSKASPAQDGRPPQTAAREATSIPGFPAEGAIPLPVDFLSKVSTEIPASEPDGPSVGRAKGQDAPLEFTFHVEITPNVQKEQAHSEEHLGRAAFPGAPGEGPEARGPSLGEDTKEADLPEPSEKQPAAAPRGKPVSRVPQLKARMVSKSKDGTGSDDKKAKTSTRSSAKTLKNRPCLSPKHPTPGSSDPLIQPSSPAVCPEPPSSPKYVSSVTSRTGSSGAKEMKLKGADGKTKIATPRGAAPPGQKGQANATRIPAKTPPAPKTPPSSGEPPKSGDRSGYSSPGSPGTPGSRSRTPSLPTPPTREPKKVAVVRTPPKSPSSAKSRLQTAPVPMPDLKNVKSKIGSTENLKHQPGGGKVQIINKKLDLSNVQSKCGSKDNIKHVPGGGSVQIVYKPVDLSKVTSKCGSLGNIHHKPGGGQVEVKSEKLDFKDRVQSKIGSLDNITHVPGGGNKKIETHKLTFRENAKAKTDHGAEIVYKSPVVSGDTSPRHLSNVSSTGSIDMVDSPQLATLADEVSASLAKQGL

Chain of Protein cereblon/Bcl-2-like protein 1 (Q07817 whole entry): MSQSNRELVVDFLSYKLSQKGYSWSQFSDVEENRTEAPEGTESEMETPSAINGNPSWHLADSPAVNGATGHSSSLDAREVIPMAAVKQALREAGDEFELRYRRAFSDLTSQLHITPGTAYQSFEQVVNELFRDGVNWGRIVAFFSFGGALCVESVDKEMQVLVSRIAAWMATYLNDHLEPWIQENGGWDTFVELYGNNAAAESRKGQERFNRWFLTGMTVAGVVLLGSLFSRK
Chain of Protein cereblon/Bcl-2-like protein 1 (Q96SW2 whole entry): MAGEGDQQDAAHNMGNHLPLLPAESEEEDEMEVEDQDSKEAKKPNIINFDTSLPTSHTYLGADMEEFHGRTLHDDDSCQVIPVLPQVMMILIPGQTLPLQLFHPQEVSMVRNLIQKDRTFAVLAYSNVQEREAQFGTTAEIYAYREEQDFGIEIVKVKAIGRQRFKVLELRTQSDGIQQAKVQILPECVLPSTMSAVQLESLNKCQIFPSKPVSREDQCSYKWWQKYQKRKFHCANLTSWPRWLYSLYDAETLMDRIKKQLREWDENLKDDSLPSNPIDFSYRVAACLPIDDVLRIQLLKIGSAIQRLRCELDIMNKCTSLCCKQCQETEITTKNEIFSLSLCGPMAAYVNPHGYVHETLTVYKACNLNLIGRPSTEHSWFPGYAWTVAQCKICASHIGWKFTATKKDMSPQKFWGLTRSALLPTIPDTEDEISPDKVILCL

For the compound `O=C1CCC(N2C(=O)c3cccc(NCCOCCOCc4cn(CCCC(=O)N5CCN(CC#Cc6ccc(OCCCc7sc(N8CCc9cccc(C(=O)Nc%10nc%11ccccc%11s%10)c9C8)nc7C(=O)O)c(F)c6)CC5)nn4)c3C2=O)C(=O)N1` (configuration not stated), in experiment [1], the half-maximal effective concentration (EC50) was 50 nM. As to `CC[C@H](C)[C@H](NC(=O)[C@H](Cc1ccc(O)cc1)NC(=O)[C@@H]1CCCN1C(=O)[C@H](C)NC(=O)[C@H](CC(C)C)NC(=O)[C@H](C)NC(=O)[C@H](CO)NC(=O)CNC(=O)[C@H](CO)NC(=O)CNC(=O)CNC(=O)[C@H](CCC(N)=O)NC(=O)[C@H](CCC(=O)O)NC(=O)[C@H](CC(=O)O)NC(=O)[C@H](C)NC(=O)[C@@H](NC(=O)[C@H](C)NC(=O)[C@H](CC(=O)O)NC(=O)[C@H](CCC(N)=O)NC(=O)[C@H](Cc1ccc(O)cc1)NC(=O)[C@H](CCC(N)=O)NC(=O)[C@H](CCC(N)=O)NC(=O)[C@@H](N)Cc1ccc(O)cc1)[C@@H](C)O)C(=O)N1CCC[C@H]1C(=O)N[C@H](CCCNC(=N)N)C(=O)N[C@H](CCCNC(=N)N)C(=O)N[C@H](CCCNC(=N)N)C(=O)N[C@H](CCCNC(=N)N)C(=O)N[C@H](CCCNC(=N)N)C(=O)N[C@H](CCCNC(=N)N)C(=O)N[C@H](CCCNC(=N)N)C(=O)N[C@H](CCCNC(=N)N)C(=O)O`, the Kd in experiment [2] worked out at 394 nM.
